Experimental data reported in ChEMBL document CHEMBL4043203, “Synthesis and biological evaluations of new nitric oxide-anti-inflammatory drug hybrids” (Bioorg Med Chem Lett, 2017).
Values belong to the compound of their own block, whether it stands above or below them.

Assays:
[1] = target: T1, Prostaglandin G/H synthase 1 (Ovis aries, UniProt P05979); test: Inhibition of ovine COX1 using arachidonic acid as substrate by colorimetric enzyme immune assay
T1 sequence (P05979 whole entry): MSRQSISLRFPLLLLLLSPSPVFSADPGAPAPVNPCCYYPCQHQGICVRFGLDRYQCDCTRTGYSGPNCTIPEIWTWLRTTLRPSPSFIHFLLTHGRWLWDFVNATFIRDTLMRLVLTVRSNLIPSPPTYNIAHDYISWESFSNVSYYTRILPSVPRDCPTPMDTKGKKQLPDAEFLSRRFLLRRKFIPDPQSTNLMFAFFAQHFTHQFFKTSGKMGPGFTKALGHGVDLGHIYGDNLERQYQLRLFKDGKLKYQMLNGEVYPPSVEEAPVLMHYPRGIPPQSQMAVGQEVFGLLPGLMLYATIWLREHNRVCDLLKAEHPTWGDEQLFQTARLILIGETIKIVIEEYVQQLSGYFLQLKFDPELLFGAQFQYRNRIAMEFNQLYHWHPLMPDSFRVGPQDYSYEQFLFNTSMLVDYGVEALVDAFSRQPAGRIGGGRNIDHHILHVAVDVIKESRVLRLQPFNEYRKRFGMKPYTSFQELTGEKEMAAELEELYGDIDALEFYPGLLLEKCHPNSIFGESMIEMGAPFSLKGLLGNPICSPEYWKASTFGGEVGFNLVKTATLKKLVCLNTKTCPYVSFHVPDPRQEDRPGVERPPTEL

[2] = target: T2, Prostaglandin G/H synthase 2 (Homo sapiens, UniProt P35354); test: Inhibition of recombinant human COX2 using arachidonic acid as substrate by colorimetric enzyme immune assay
T2 sequence (P35354 whole entry): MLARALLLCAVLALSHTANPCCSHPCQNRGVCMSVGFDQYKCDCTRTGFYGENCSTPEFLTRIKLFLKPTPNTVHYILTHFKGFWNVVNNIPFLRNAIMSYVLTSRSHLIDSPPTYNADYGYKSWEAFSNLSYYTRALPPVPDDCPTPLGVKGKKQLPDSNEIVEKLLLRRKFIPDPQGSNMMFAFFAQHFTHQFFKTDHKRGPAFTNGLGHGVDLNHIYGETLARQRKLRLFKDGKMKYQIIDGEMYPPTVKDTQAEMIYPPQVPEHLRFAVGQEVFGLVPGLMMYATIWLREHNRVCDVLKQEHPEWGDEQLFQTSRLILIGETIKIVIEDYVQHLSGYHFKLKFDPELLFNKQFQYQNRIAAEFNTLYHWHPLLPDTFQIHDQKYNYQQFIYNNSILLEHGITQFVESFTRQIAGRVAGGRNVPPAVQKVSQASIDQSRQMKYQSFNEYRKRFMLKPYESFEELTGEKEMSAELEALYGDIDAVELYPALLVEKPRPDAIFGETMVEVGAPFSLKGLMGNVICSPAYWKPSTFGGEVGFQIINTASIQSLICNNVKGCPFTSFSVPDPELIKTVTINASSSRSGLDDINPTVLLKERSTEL

[3] = Selectivity index, ratio of IC50 for ovine COX1 to IC50 for recombinant human COX2
Rattus norvegicus [4] = test: Antiinflammatory activity in Wistar albino rat assessed as inhibition of carrageenan-induced left hind paw edema at 50 mg/kg, po pretreated for 1 hr followed by carrageenan addition measured after 2 hrs relative to control; assay type: functional; conditions: Wister
Rattus norvegicus [5] = test: Antiinflammatory activity in po dosed Wistar albino rat assessed as inhibition of carrageenan-induced left hind paw edema pretreated for 1 hr followed by carrageenan addition measured after 2 hrs; assay type: functional; conditions: Wister
Rattus norvegicus [6] = test: Antiinflammatory activity in Wistar albino rat assessed as serum nitric oxide level at 50 mg/kg, po treated for 3 successive days measured at 2 hrs post last dose by Griess reagent based colorimetric assay (reference value: 147.90 +/- 31.76 micromol/L); assay type: functional, Wister
Rattus norvegicus [7] = test: Ulcerogenic activity in Wistar albino rat assessed as ulcer index at 50 mg/kg, po treated for 3 successive days measured at 2 hrs post last dose; assay type: toxicity, organism-based, Wister; conditions: in vivo
Rattus norvegicus [8] = test: Ulcerogenic activity in Wistar albino rat assessed as relative ulcerogenicity at 50 mg/kg, po treated for 3 successive days measured at 2 hrs post last dose relative to celecoxib; assay type: toxicity, organism-based, Wister; conditions: in vivo
Rattus norvegicus [9] = organism: Rattus norvegicus; test: Ulcerogenic activity in Wistar albino rat assessed as lesion in stomach after 48 hrs by hematoxylin and eosin staining based microscopic analysis; assay type: toxicity, Wister; conditions: in vivo
Rattus norvegicus [10] = organism: Rattus norvegicus; test: Ulcerogenic activity in Wistar albino rat assessed as minimum vasocapillary dilation in stomach after 48 hrs by hematoxylin and eosin staining based microscopic analysis; assay type: toxicity, Wister; conditions: in vivo
Rattus norvegicus [11] = organism: Rattus norvegicus; test: Ulcerogenic activity in Wistar albino rat assessed as loss of mucous in stomach after 48 hrs by hematoxylin and eosin staining based microscopic analysis; assay type: toxicity, Wister; conditions: in vivo
Rattus norvegicus [12] = organism: Rattus norvegicus; test: Ulcerogenic activity in Wistar albino rat assessed as abdominal perforation in stomach after 48 hrs by hematoxylin and eosin staining based microscopic analysis; assay type: toxicity, Wister; conditions: in vivo

IC50 [1]: 6.8 µM | IC50 [2]: 1.55 µM | Ratio IC50 [3]: 4.38
SMILES: Cc1c(-c2c(N=O)nc3ncccn23)cnn1-c1ccccc1
inhibition in vivo at 50 mg/kg (Rattus norvegicus [4]): 62% | ED50 (Rattus norvegicus [5]): 38 mg/kg | Activity (Rattus norvegicus [6]): 386.3 µmol/L | UI (Rattus norvegicus [7]): 0.33 | fold change (FC) (Rattus norvegicus [8]): 1 | Activity (Rattus norvegicus [9]): Non-Toxic | Activity (Rattus norvegicus [10]): Non-Toxic

IC50 [1]: 5.88 µM | IC50 [2]: 0.78 µM | Ratio IC50 [3]: 7.84
SMILES: Cc1c(-c2nnc(-c3ccccc3)c3conc23)cnn1-c1ccccc1
inhibition in vivo at 50 mg/kg (Rattus norvegicus [4]): 50% | ED50 (Rattus norvegicus [5]): 50 mg/kg | Activity (Rattus norvegicus [6]): 314.4 µmol/L | UI (Rattus norvegicus [7]): 1.76 | fold change (FC) (Rattus norvegicus [8]): 5.06

IC50 [1]: 9.2 µM | IC50 [2]: 6.6 µM | Ratio IC50 [3]: 1.39
SMILES: Cc1c(-c2nc3ccccc3nc2N=O)cnn1-c1ccccc1
inhibition in vivo at 50 mg/kg (Rattus norvegicus [4]): 59% | ED50 (Rattus norvegicus [5]): 40 mg/kg | Activity (Rattus norvegicus [6]): 140.1 µmol/L | UI (Rattus norvegicus [7]): 3 | fold change (FC) (Rattus norvegicus [8]): 9.09

IC50 [1]: 5.6 µM | IC50 [2]: 1.22 µM | Ratio IC50 [3]: 4.59
SMILES: Cc1c(C2=C(N=O)Oc3cccnc3N2)cnn1-c1ccccc1
inhibition in vivo at 50 mg/kg (Rattus norvegicus [4]): 64% | ED50 (Rattus norvegicus [5]): 35 mg/kg | Activity (Rattus norvegicus [6]): 415.3 µmol/L | UI (Rattus norvegicus [7]): 0.33 | fold change (FC) (Rattus norvegicus [8]): 1

IC50 [1]: 9.2 µM | IC50 [2]: 1.75 µM | Ratio IC50 [3]: 5.25
SMILES: Cc1c(-c2nc3ccccn3c2N=O)cnn1-c1ccccc1
inhibition in vivo at 50 mg/kg (Rattus norvegicus [4]): 65% | ED50 (Rattus norvegicus [5]): 35 mg/kg | Activity (Rattus norvegicus [6]): 402.6 µmol/L | UI (Rattus norvegicus [7]): 2 | fold change (FC) (Rattus norvegicus [8]): 6.06

IC50 [1]: 11.1 µM | IC50 [2]: 1.49 µM | Ratio IC50 [3]: 7.44
SMILES: Cc1c(C(=O)c2nocc2C(=O)c2ccccc2)cnn1-c1ccccc1
inhibition in vivo at 50 mg/kg (Rattus norvegicus [4]): 41% | ED50 (Rattus norvegicus [5]): 61 mg/kg | Activity (Rattus norvegicus [6]): 372 µmol/L | UI (Rattus norvegicus [7]): 0.33 | fold change (FC) (Rattus norvegicus [8]): 1

IC50 [1]: 4.52 µM | IC50 [2]: 1.12 µM | Ratio IC50 [3]: 4.03
SMILES: Cc1ccc(C(=O)c2conc2C(=O)c2cnn(-c3ccccc3)c2C)cc1
inhibition in vivo at 50 mg/kg (Rattus norvegicus [4]): 45% | ED50 (Rattus norvegicus [5]): 56 mg/kg | Activity (Rattus norvegicus [6]): 346.5 µmol/L | UI (Rattus norvegicus [7]): 1.33 | fold change (FC) (Rattus norvegicus [8]): 4.03

IC50 [1]: 9.11 µM | IC50 [2]: 4.5 µM | Ratio IC50 [3]: 2.02
SMILES: Cc1c(C(=O)c2conc2C(=O)c2cnn(-c3ccccc3)c2C)cnn1-c1ccccc1
Activity (Rattus norvegicus [6]): 286.2 µmol/L | UI (Rattus norvegicus [7]): 0.33 | fold change (FC) (Rattus norvegicus [8]): 1

IC50 [1]: 8.6 µM | IC50 [2]: 4.2 µM | Ratio IC50 [3]: 2.04
SMILES: Cc1c(C2=C(N=O)Oc3ccccc3N2)cnn1-c1ccccc1
inhibition in vivo at 50 mg/kg (Rattus norvegicus [4]): 56% | ED50 (Rattus norvegicus [5]): 45 mg/kg | Activity (Rattus norvegicus [6]): 335.3 µmol/L | UI (Rattus norvegicus [7]): 2 | fold change (FC) (Rattus norvegicus [8]): 6.06

Second part, the compound before the results:

SMILES: Cc1c(C2=C(N=O)Sc3ccccc3N2)cnn1-c1ccccc1
IC50 [1]: 7.72 µM | IC50 [2]: 1.83 µM | Ratio IC50 [3]: 4.21 | inhibition in vivo at 50 mg/kg (Rattus norvegicus [4]): 56% | ED50 (Rattus norvegicus [5]): 45 mg/kg | Activity (Rattus norvegicus [6]): 348.3 µmol/L | UI (Rattus norvegicus [7]): 0.33 | fold change (FC) (Rattus norvegicus [8]): 1

SMILES: Cc1ccc(-c2nnc(-c3cnn(-c4ccccc4)c3C)c3nocc23)cc1
IC50 [1]: 10.2 µM | IC50 [2]: 1.28 µM | Ratio IC50 [3]: 7.94 | inhibition in vivo at 50 mg/kg (Rattus norvegicus [4]): 54% | ED50 (Rattus norvegicus [5]): 46 mg/kg | Activity (Rattus norvegicus [6]): 273.1 µmol/L | UI (Rattus norvegicus [7]): 0.33 | fold change (FC) (Rattus norvegicus [8]): 1

SMILES: Cc1ccc(-c2cc(C(F)(F)F)nn2-c2ccc(S(N)(=O)=O)cc2)cc1 [CELECOXIB]
inhibition in vivo at 50 mg/kg (Rattus norvegicus [4]): 65% | ED50 (Rattus norvegicus [5]): 35 mg/kg | UI (Rattus norvegicus [7]): 0.33 | Activity (Rattus norvegicus [9]): Non-Toxic | Activity (Rattus norvegicus [10]): Non-Toxic

SMILES: Cc1c(C2=C(N=O)Nc3ccccc3N2)cnn1-c1ccccc1
IC50 [1]: 9.22 µM | IC50 [2]: 1.61 µM | Ratio IC50 [3]: 5.77 | inhibition in vivo at 50 mg/kg (Rattus norvegicus [4]): 57% | ED50 (Rattus norvegicus [5]): 40 mg/kg | Activity (Rattus norvegicus [6]): 370.1 µmol/L | UI (Rattus norvegicus [7]): 2.33 | fold change (FC) (Rattus norvegicus [8]): 7.06

SMILES: Cc1c(C(=O)/C(Cl)=N/O)cnn1-c1ccccc1
IC50 [1]: 9.8 µM | IC50 [2]: 2.33 µM | Ratio IC50 [3]: 4.2 | inhibition in vivo at 50 mg/kg (Rattus norvegicus [4]): 50% | ED50 (Rattus norvegicus [5]): 50 mg/kg | Activity (Rattus norvegicus [6]): 315.5 µmol/L | UI (Rattus norvegicus [7]): 5 | fold change (FC) (Rattus norvegicus [8]): 15.15 | Activity (Rattus norvegicus [11]): Non-Toxic | Activity (Rattus norvegicus [10]): Non-Toxic

SMILES: COc1ccc2c(c1)c(CC(=O)O)c(C)n2C(=O)c1ccc(Cl)cc1 [INDOMETHACIN]
Activity (Rattus norvegicus [11]): Toxic | Activity (Rattus norvegicus [12]): Toxic

SMILES: Cc1c(-c2nnc(-c3cnn(-c4ccccc4)c3C)c3nocc23)cnn1-c1ccccc1
IC50 [1]: 10.1 µM | IC50 [2]: 6.88 µM | Ratio IC50 [3]: 1.46 | Activity (Rattus norvegicus [6]): 318.8 µmol/L | UI (Rattus norvegicus [7]): 1.33 | fold change (FC) (Rattus norvegicus [8]): 4.03 | Activity (Rattus norvegicus [9]): Non-Toxic | Activity (Rattus norvegicus [10]): Non-Toxic
